Measured values published in patent US12303594B2, “Antimicrobial and anti-inflammatory compositions” (The Texas A&M University System, priority 2015, dated 2025).

Tests used:
[1] = Bulk and tapped density, compressibility index and Hausner ratio; type: physicochemical
Method: In this modified method, a 10 mL graduated cylinder fitted with a molded adapter substituted the 100 mL graduated cylinder in the tapped density tester. The compressibility index (CI) and Hausner ratio (HR) calculations were performed according to the following formulas: The tapped density (rT) calculations were performed using a tapped density tester (Agilent Technologies, Santa Clara, CA, USA) with a modified method from the USP for a small mass of powder. In this modified method, a 10 mL graduated cylinder fitted with a molded adapter substituted the 100 mL graduated cylinder for the calculations of the bulk density (rB) and the use in the tapped density tester. The compressibility index (CI) and the Hausner ratio (HR) calculations were performed according to the following formulas: […]

SA 25-05 = test: Endpoint time-kill synergy study; conditions: ibuprofen with sub-MIC antimicrobial vs antimicrobial alone, 6 hours
Method: Afterwards, the inoculums were plated to determine their CFU/ml. Synergy from the combination was determined by a ≥2×log10 decrease in CFU/ml when compared to antimicrobial treatment alone.

[2] = test system: methicillin-resistant Staphylococcus aureus (strain MRSA 0646); test: Minimum inhibitory concentration (MIC); type: cell-based; conditions: alone, read-out: MIC
Method: (§1) The final concentrations of aztreonam, ceftazidime and vancomycin were 0.06, 0.13, 0.25, 0.5, 1, 2, 4, 8, 16, 32, 64, and 128 μg/ml. The plates were incubated overnight at 37° C. […] Each triplicate was performed at least twice.

[3] = test system: Pseudomonas aeruginosa (strain PA HP3); test: Minimum inhibitory concentration (MIC); type: cell-based; conditions: alone
Method: as §1

[4] = Particle size distribution by laser light diffraction; type: physicochemical
Method: The particle size distribution (PSD) D10, D50, and D90 values for each sample were defined as particle diameters at the 10th, 50th, and 90th percentile and the span value was calculated according to Equation 2: […]
PSD analysis by laser light diffraction: PSDs were determined using a Sympatec Helos equipped with a Cuvette module (System-Partikel-Technik GmbH, Clausthal-Zellerfeld, Germany). Data were analyzed using the Sympatec WINDOX software. For each measurement, per a previously optimized method, about 2 mg of powder was dispersed in 0.5 mL of 0.1% (w/v) sodium dodecyl sulfate in water and the sample was sonicated for 5 min. […] After the reference measurement, 50 μL aliquots of the sonicated suspension were added to the cell to achieve optical concentrations of between 10 to 20% and the total of six measurements were performed on each sample. Formulations immediately following air-jet milling (25IBU10.1, 25IBU10.2) and after 6 months (25IBU10.1**, 25IBU10.2**) stored at RT (IBU10.1), or at −80° C. (IBU10.2) were analyzed.
PSDs were determined using a Sympatec Helos equipped with a Cuvette module (System-Partikel-Technik GmbH, Clausthal-Zellerfeld, Germany). Data were analyzed using the Sympatec WINDOX software. For each measurement per a previously optimized method, about 2 mg of powder was dispersed in 0.5 mL of 0.1% (w/v) SLS in water and the sample was sonicated for 5 minutes. […] After the reference measurement, 50 μL aliquots of the sonicated suspension were added to the cell to achieve optical concentrations of between 10 to 20% and the total of six measurements were performed on each sample. Analyzed samples included: unprocessed IBU and IND as well as the milled samples from different sections of the jet mill including the tube after grinding chamber (bfC), the cyclone (C), the collection vessel adapter (D), the collection bag adapter (E), the collection vessel (G) and the collection bag (H) for each run. The span value was calculated according to Equation 2.
To estimate the overall D10, D50, and D90 values for the combined recovered fractions associated with each run, stacked bar charts were graphed and analyzed to determine the yield normalized cumulative PSDs. Each stacked bar corresponded to a particle size bin and its height corresponded to the volume density distributions' weighted averages by the yield for each segment of the jet mill. The D10, D50, and D90 values for the normalized cumulative PSDs were the particle sizes corresponding to the 10, 50, and 90% area of the stacked bar chart respectively.
Tween 20 and sodium lauryl sulfate (SLS) were purchased from Fisher Scientific (Fisher Scientific, Pittsburgh, PA, USA), and dH2O was used for preparing solutions. […] A reference measurement was done in 0.1% (v/v) Span 85 in light mineral oil. After a reference measurement, aliquots of […] of sonicated suspension were added to achieve optical concentrations from 10 to 20% for a total of six measurements.
Furthermore, D10, D50, and D90 values for each sample were defined as particle diameters at the 10th, 50th, and 90th percentile of the PSD. Span was calculated according to Equation 2. Normalized cumulative PSDs were composed of yield-normalized distributions, where they were depicted as stacked bar charts. D10, D50, and D90 values for normalized cumulative PSDs were calculated by approximating particle sizes associated with 10%, 50%, and 90% area of the stacked bar chart.

[5] = collection bag fraction or stock, Table 8
[6] = fraction used for testing (IBU collection bag, IND cyclone) or unprocessed powder

CC(C)Cc1ccc(C(C)C(=O)O)cc1 (stereo not drawn) [ibuprofen, 2(4-isobutylphenyl)propanoic acid]
bulk density [1]: 0.268 g/mL
tap density [1]: 0.441 g/mL
ρB (bulk density) [1]: 0.27 g/mL
ρT (tapped density) [1]: 0.44 g/mL
killing efficacy of ceftazidime and gentamicin (CFU/ml) (SA 25-05): significantly increased the killing efficacy of both ceftazidime and gentamicin
MIC [2]: > 128 µg/mL
MIC [3]: > 128 µg/mL
D50 [4, 5]: 48.0 μm
D90 [4, 5]: 106.7 μm
Span [4, 5]: 1.8
Span [4, 6]: 1.84
median size (d50) [4, 6]: 48 μm
